A short description of data set [1]: Slurry interconversion of solid forms with Form A. The class given is physicochemical. As to conditions: slurry of the form together with Form A; resulting form (time).
The nature of data set [2]: Solubility assessment of Compound I Form A in solvents and solvent mixtures (visual observation). The format is physicochemical.
The test system of data set [3] is patients. As to conditions: human, in vivo.
Data set [4] relates to patients. The data set can be described thus: Toxicity and adverse events in clinical studies of Compound I. As to conditions: early development; out of more than 450 patients.
A short description of data set [5]: Solid form stability under ambient conditions. The class given is physicochemical. The procedure:
Samples were prepared from Compound I Form A solids or from samples generated from these solids. Form designation for the materials was based on X-ray powder diffraction (XRPD). Care was taken to protect samples from light, unless stated otherwise. Prior to characterization, solids were stored as follows: Form A and Form B (may have contained Form A solids as well) under ambient conditions, Form E and Form H over desiccant in a freezer, Form C in contact with mother liquor in a refrigerator, Form D in contact with mother liquor in a freezer, and Form I in contact with mother liquor under ambient conditions or in a freezer. Due to apparent instability of Form D, all characterization data except solution proton nuclear magnetic resonance spectroscopy (H-NMR) were collected for Form D on the same day. Although the ^1H-NMR analysis was not run until a few days later, the solution for the analysis was prepared on the same day as the rest of the characterization.
A crystal prepared from cold acetone solution was indexed. The indexing solution was determined to be an orthorhombic unit cell with the following cell parameters and calculated volume: a=9.093, b=15.581, c=23.141 Å, V=3278.57(9) Å^3. The formula weight was determined to be 598.81 g/mol. The cell parameters are similar to the cell obtained from the Compound I Form J crystal structure. […]

Data set [6] in a line: Form N solvent removal attempts (heating, vacuum drying, slurry), resulting form by XRPD. The format is physicochemical. The following applies: for XRPD result after vacuum drying: 43 mg, 42° C. vac dry 22 hours at 20 mTorr. On the procedure:
The resulting solids were characterized by proton NMR spectroscopy. […] Subsequently, the dried sample was characterized by DSC. The observed results are subject to the conditions used at the time of analysis. […] The remaining solids (43 mg) were dried for approximately 22 hours in a vacuum oven at approximately 42° C., at approximately 20 mTorr. The weight loss was not determined but the dried solids were characterized by XRPD.
Solids were recovered via vacuum filtration, washing with acetonitrile (4×1 mL). The solids were left on the filter under vacuum for several minutes to dry the solids. […] In another embodiment, 309.5 mg of solid were slurried in water (4 mL) for approximately 24.5 hours. Solids were recovered via vacuum filtration, washing with water (2×1 mL). The solids were left on the filter under vacuum for approximately 1.5 hours to dry the solids.

SMILES strings stand for the structures. In brackets after ≈: the same amount, converted by molar mass. Entries after “also recorded” stand apart in the source; their conditions may differ. Read-outs that look alike come from different tables or passages of the source.

Take `C/C=C1\NC(=O)[C@H]2CSSCC/C=C/[C@H](CC(=O)N[C@H](C(C)C)C(=O)N2)OC(=O)[C@H](C(C)C)NC1=O` [Form B, romidepsin]: the Slurry interconversion entry in data set [1] was “A + B → A (2 hrs)”.
In the case of `C/C=C1\NC(=O)[C@H]2CSSCC/C=C/[C@H](CC(=O)N[C@H](C(C)C)C(=O)N2)OC(=O)[C@H](C(C)C)NC1=O` [Form A, romidepsin], the solubility in data set [2] (2,2,2-trifluoroethanol (TFE), organic solvent or mixture, thermodynamic from solid, 2,2,2-trifluoroethanol (TFE), ambient temperature, reported values <= actual solubility, approximate, read-out: Solubility) was above 100 mg/mL; in data set [2] (2,2,2-trifluoroethanol (TFE), ambient temperature, reported values <= actual solubility, approximate, listed as Compound I, Form A), 158.9 mg/mL (≈ 294 mM); in data set [2] (2-butanone (MEK), organic solvent or mixture, thermodynamic from solid, 2-Butanone (MEK), ambient temperature, reported values <= actual solubility, approximate, read-out: Solubility) it was 12.5 mg/mL (≈ 23.1 mM); in data set [2] ((0.1:0.1) TFE:DCM, organic solvent or mixture, thermodynamic from solid, (0.1:0.1) TFE:DCM, ambient temperature, reported values <= actual solubility, approximate, read-out: Solubility) it was 97 mg/mL (≈ 179 mM); in data set [2] ((0.5:0.1) acetone:DCM, organic solvent or mixture, thermodynamic from solid, (0.5:0.1) Acetone:DCM, ambient temperature, reported values <= actual solubility, approximate, read-out: Solubility), 38 mg/mL (≈ 70.3 mM); in data set [2] ((1:0.1) 2-butanone:TFE, organic solvent or mixture, thermodynamic from solid, (1:0.1) 2-Butanone:TFE, ambient temperature, reported values <= actual solubility, approximate, read-out: Solubility), 20.6 mg/mL (≈ 38.1 mM). Besides, the solubility in data set [2] ((1:0.1) toluene:TFE, organic solvent or mixture, thermodynamic from solid, (1:0.1) Toluene:TFE, ambient temperature, reported values <= actual solubility, approximate, read-out: Solubility) came to 21.4 mg/mL (≈ 39.6 mM); in data set [2] ((1:0.2) acetonitrile (ACN):TFE, organic solvent or mixture, thermodynamic from solid, (1:0.2) Acetonitrile (ACN):TFE, ambient temperature, reported values <= actual solubility, approximate, read-out: Solubility) it was 17.9 mg/mL (≈ 33.1 mM); in data set [2] ((1:0.2) ethanol:TFE, organic solvent or mixture, thermodynamic from solid, (1:0.2) Ethanol:TFE, ambient temperature, reported values <= actual solubility, approximate, read-out: Solubility), 16.3 mg/mL (≈ 30.1 mM); in data set [2] ((1:0.5) dioxane:acetone, organic solvent or mixture, thermodynamic from solid, (1:0.5) Dioxane:Acetone, ambient temperature, reported values <= actual solubility, approximate, read-out: Solubility), 13.3 mg/mL (≈ 24.6 mM); in data set [2] ((1:1) 2-propanol:acetone, 60 °C, organic solvent or mixture, thermodynamic from solid, (1:1) 2-Propanol:Acetone, hot plate set to 60° C., reported values <= actual solubility, approximate, read-out: Solubility), 11.5 mg/mL (≈ 21.3 mM); in data set [2] ((1:1) ethanol/IPA, 70 °C, organic solvent or mixture, thermodynamic from solid, (1:1) Ethanol/IPA, hot plate set to 70° C., reported values <= actual solubility, approximate, read-out: Solubility), 28 mg/mL (≈ 51.8 mM). For the same molecule, the solubility in data set [2] ((1:3) ethanol/IPA, 70 °C, organic solvent or mixture, thermodynamic from solid, (l:3) Ethanol/IPA, hot plate set to 70° C., reported values <= actual solubility, approximate, read-out: Solubility) stood at 10 mg/mL (≈ 18.5 mM); in data set [2] ((1.5:0.5) water:DCM, aqueous with cosolvent or surfactant or cyclodextrin, thermodynamic from solid, (1.5:0.5) Water:DCM, ambient temperature, reported values <= actual solubility, approximate, read-out: Solubility), 12.4 mg/mL (≈ 22.9 mM); in data set [2] ((1.5:0.8) ethyl acetate:acetone, organic solvent or mixture, thermodynamic from solid, (1.5:0.8) Ethyl Acetate:Acetone, ambient temperature, reported values <= actual solubility, approximate, read-out: Solubility), 8.9 mg/mL (≈ 16.5 mM); in data set [2] ((1.5:1) heptane:DCM, 60 °C, organic solvent or mixture, thermodynamic from solid, (1.5:1) Heptane:DCM, hot plate set to 60° C., reported values <= actual solubility, approximate, read-out: Solubility), 8 mg/mL (≈ 14.8 mM); in data set [2] ((1.5:1) methanol:TFE, 60 °C, organic solvent or mixture, thermodynamic from solid, (1.5:1) Methanol:TFE, hot plate set to 60° C., reported values <= actual solubility, approximate, read-out: Solubility), 8.7 mg/mL (≈ 16.1 mM); in data set [2] ((4.5:3) isopropyl ether:ethanol, organic solvent or mixture, thermodynamic from solid, (4.5:3) Isopropyl Ether:Ethanol, ambient temperature, reported values <= actual solubility, approximate, read-out: Solubility), 6.8 mg/mL (≈ 12.6 mM). Further, the solubility in data set [2] (Acetone, ambient temperature, reported values <= actual solubility, approximate, listed as Compound I, Form A) was 28.2 mg/mL (≈ 52.2 mM); in data set [2] (Dichloromethane (DCM), ambient temperature, reported values <= actual solubility, approximate, listed as Compound I Form A), “over 100 mg/ml”; in data set [2] (Dimethylformamide (DMF), ambient temperature, reported values <= actual solubility, approximate, listed as Compound I Form A), “over 100 mg/ml”; in data set [2] (Dimethylformamide (DMF), ambient temperature, reported values <= actual solubility, approximate, listed as Compound I, Form A), 248.5 mg/mL (≈ 460 mM); in data set [2] (acetone, organic solvent or mixture, thermodynamic from solid, Acetone, ambient temperature, reported values <= actual solubility, approximate, read-out: Solubility), 22.4 mg/mL (≈ 41.4 mM); in data set [2] (chloroform, organic solvent or mixture, thermodynamic from solid, Chloroform, ambient temperature, reported values <= actual solubility, approximate, read-out: Solubility) it was 26.5 mg/mL (≈ 49 mM). Also, the solubility is 23.5 mg/mL (≈ 43.5 mM) in data set [2] (ethanol (EtOH), organic solvent or mixture, thermodynamic from solid, Ethanol (EtOH), ambient temperature, reported values <= actual solubility, approximate, read-out: Solubility); 4.6 mg/mL (≈ 8.51 mM) in data set [2] (isopropanol (IPA), organic solvent or mixture, thermodynamic from solid, Isopropanol (IPA), ambient temperature, reported values <= actual solubility, approximate, read-out: Solubility); above 10 mg/mL in data set [2] (majority of the solvents and solvent combinations tested, organic solvent or mixture, thermodynamic from solid, majority of solvent and solvent combinations tested, read-out: moderate solubility); 23.6 mg/mL (≈ 43.6 mM) in data set [2] (nitromethane, organic solvent or mixture, thermodynamic from solid, Nitromethane, ambient temperature, reported values <= actual solubility, approximate, read-out: Solubility). Also, the Slurry interconversion entry in data set [1] was “Remains A”.
On to `C/C=C1\NC(=O)[C@H]2CSSCC/C=C/[C@H](CC(=O)N[C@H](C(C)C)C(=O)N2)OC(=O)[C@H](C(C)C)NC1=O` [Form E, romidepsin], for which the Slurry interconversion result in data set [1] was “A + E → A, trace E”.
Take `C/C=C1\NC(=O)[C@H]2CSSCC/C=C/[C@H](CC(=O)N[C@H](C(C)C)C(=O)N2)OC(=O)[C@H](C(C)C)NC1=O` [Compound I, romidepsin]: in data set [3], the “Severity of observed toxicities” value is “mild to moderate”; the “serial serum troponin levels and multiple gated acquisition (MUGA) scans” value is recorded as “consistently normal”. The “deaths during clinical investigations” value in data set [4] was 6.
In the case of `C/C=C1\NC(=O)[C@H]2CSSCC/C=C/[C@H](CC(=O)N[C@H](C(C)C)C(=O)N2)OC(=O)[C@H](C(C)C)NC1=O` [Form I, romidepsin], in data set [5] (listed as Compound I Form I), the “Form conversion under ambient conditions” value is “converts to Form H”.
As for `C/C=C1\NC(=O)[C@H]2CSSCC/C=C/[C@H](CC(=O)N[C@H](C(C)C)C(=O)N2)OC(=O)[C@H](C(C)C)NC1=O` [Form N, romidepsin], the “XRPD result after heating” value in data set [6] (10.3 mg, heated to 180° C. by DSC (crimped)) is listed as “Form A + 2 weak peaks”. For the same molecule, the “XRPD result after vacuum drying” value is “unknown + Form N” in data set [6] and “contains XRPD peaks of Form N but exhibits additional unknown peaks” in data set [6] (listed as Compound I, Form N). Further, the “XRPD result after slurry” value in data set [6] (152.4 mg, 1 mL acetonitrile, slurry 1 hour) was “pattern T”. Further, in data set [6] (308.3 mg, RT vac dry 5 days at 5 mTorr), the “HR XRPD result after vacuum drying” value is recorded as “exhibited Form N; also recorded: Form N + weak peak”. Also, the “HR XRPD result after slurry” value in data set [6] (309.5 mg, 4 mL water, slurry 24.5 hours) was “a mixture of Forms C and A; also recorded: Forms C + A + peaks ^g”.
In the case of `C/C=C1\NC(=O)[C@H]2CSSCC/C=C/[C@H](CC(=O)N[C@@H](C(C)C)C(=O)N2)OC(=O)[C@H](C(C)C)NC1=O` [Form D, romidepsin], in data set [1], the Slurry interconversion entry was “A + D → A, trace C”. In addition, in data set [5], the “Form conversion under ambient conditions” value was “converts to Form A”.
Turning to `C/C=C1\NC(=O)[C@H]2CSSCC/C=C/[C@H](CC(=O)N[C@H](C(C)C)C(=O)N2)OC(=O)[C@H](C(C)C)NC1=O` [Form C, romidepsin], the Slurry interconversion entry in data set [1] is “A + C → A (2 hrs)”.
